{"source": "patent US11739053B2", "about": "“P62-ZZ chemical inhibitor” (ID4PHARMA, LLC, priority 2011, dated 2023)", "key": {"[1]": {"system": "MM1.S myeloma cell line", "assay": "MM1.S myeloma cell proliferation, MTT assay", "format": "cell-based, human", "settings": "48 h", "experimental": "(§1) FIG. 4A-C: 4A. Effect of p62-ZZ inhibitor #3 on myeloma cell growth. MM cell growth was assayed by MTT assay. Data are shown as mean±SD (n=5). FIG. 4B. MTT assay of CD138(+) primary myeloma cells. Data are shown as mean±SD (n=5). FIG. 4C. Effects of p62-ZZ inhibitors on human stromal cell growth. Primary human stromal cells (5×10^3/well) were cultured with 10 μM of p62-ZZ inhibitor (#1-6) containing 10% FCS in IMDM for 48 hours. Stromal cells growth was assayed by MTT assay. Data are shown as the mean±SD (n=5). *P<0.01 compared to vehicle treated culture. MM1.S (3×10^5 cells/well) or CD138 (+) (1×10^5 cells/well) primary myeloma cells were incubated in 96-well plates in the presence of RPMI-1640-10% FCS and various concentrations of p62-ZZ inhibitor #3 at 37° C. 5% CO2 for 48 h to determine the IC50 for inhibiting myeloma cell proliferation."}, "[2]": {"system": "Primary human stromal cells", "assay": "Stromal cell growth, MTT assay", "format": "cell-based", "experimental": "as §1"}, "[3]": {"system": "Human CD34(+) mononuclear cells", "assay": "CFU-Blast colony formation", "format": "cell-based", "settings": "all concentrations, 7 days", "experimental": "FIG. 7A-C: 7A. CFU-Blast colony formation. Human CD34(+) cells were cultured with p62-ZZ inhibitor #3 and 1 ng/ml of rhIL-3 IL-6 and SCF for 7 days. Data are shown as the mean±SD (n=5). FIG. 7B. Human OCL formation. Non-adherent mononuclear cells (2.5×10^7 cells/10-cm dish) derived from human bone marrow samples were cultured in α-MEM containing 10% FCS, 100 pg/ml recombinant human GM-CSF(R & D) for 7 days. Then the cells were collected and plated (cell density is 1.0×10^6 cells/nil) in α-MEM containing 20% horse serum with 1 ng/ml TNFα. Half-media changes were performed twice a week containing various concentrations of the p62-ZZ inhibitor #3. The cultures were incubated for a total of 2 weeks at 37° C. with 5% CO2 and 95% humidity. The osteoclasts were stained with the 23C6 antibody which recognizes CD51/61. Data are shown as the mean±SD (n=5). *P<0.01 compared to vehicle treated cultures. 7C. OCL formation by wild type and p62−/− mouse osteoclast precursors. Data is shown as the mean±SD (n=4). *: P<0.01 compared to no-inhibitor cultures. Whether p62-ZZ inhibitor #3 affects hematopoesis since osteoclast precursors are derived from hematopoietic cells was examined. […] Colonies were scored after 7 days of culture using an inverted microscope."}, "[4]": {"system": "CD11b(+) mononuclear cells from wild type mice", "assay": "OCL formation by wild type mouse osteoclast precursors, TRACP stain", "format": "cell-based", "settings": "7 days, 50 ng/ml TNFα", "experimental": "FIG. 7A-C: 7A. CFU-Blast colony formation. Human CD34(+) cells were cultured with p62-ZZ inhibitor #3 and 1 ng/ml of rhIL-3 IL-6 and SCF for 7 days. Data are shown as the mean±SD (n=5). FIG. 7B. Human OCL formation. Non-adherent mononuclear cells (2.5×10^7 cells/10-cm dish) derived from human bone marrow samples were cultured in α-MEM containing 10% FCS, 100 pg/ml recombinant human GM-CSF(R & D) for 7 days. Then the cells were collected and plated (cell density is 1.0×10^6 cells/nil) in α-MEM containing 20% horse serum with 1 ng/ml TNFα. Half-media changes were performed twice a week containing various concentrations of the p62-ZZ inhibitor #3. The cultures were incubated for a total of 2 weeks at 37° C. with 5% CO2 and 95% humidity. The osteoclasts were stained with the 23C6 antibody which recognizes CD51/61. Data are shown as the mean±SD (n=5). *P<0.01 compared to vehicle treated cultures. 7C. OCL formation by wild type and p62−/− mouse osteoclast precursors. Data is shown as the mean±SD (n=4). *: P<0.01 compared to no-inhibitor cultures. The effects of p62-ZZ inhibitor #3 on osteoclast formation by p62^−/− OCL precursors were examined to determine the specificity of the effects of the p62-ZZ inhibitor #3 on osteoclast precursors. CDIIb(+) mononuclear cells from wild type and p62″/_mice were used. […] OCLs were scored as TRAP positive cells containing 3 or more nuclei. […]"}, "[5]": {"system": "MM1.S cells", "assay": "Caspase 9, 7 and 3 cleavage in MM1.S cells, Western blot", "format": "cell-based, human", "settings": "10 μM, after 16 hours", "experimental": "FIG. 9A-C: 9A. […] MM1.S cells were cultured with 10 μM of p62-ZZ antagonist for the indicated time, and then cell lysates were collected. Caspase 9, 7 and 3 were detected by Western blotting using anti-caspase 9, 7 and 3 specific antibodies (Cell Signaling). FIG. 9B. Detection of Apoptosis using the TUNEL reaction with MM1.S cells treated with p62-ZZ antagonist. MM1.S cells were treated with 10/μM of p62-ZZ antagonist #3 for 24 hours and then the cells were collected and mounted on glass slides using the cytospin procedure. Terminal deoxynucleotidyl transferase nick end labeling (TUNEL) reactions were conducted using an In Situ Cell Death Detection Kit (Roche) according to the manufacturer's instructions. The stained cells were analyzed using a fluorescence microscope equipped with standard green filter. FIG. 9C. The p62-ZZ antagonist induced Reactive Oxygen Species in MM1.S cells. MM1.S cells were treated with 10 μM of p62-ZZ antagonist #3 for 6 hours. Cells were collected and stained for Reactive Oxygen Species (ROS) using a Total ROS detection kit (Enzo) according to the manufacturer's instructions. The expression of apoptosis markers in p62-ZZ antagonist treated on 25 MM cells was determined to determine the mechanism action of this antagonist."}, "[6]": {"assay": "Exploratory metabolic studies"}}, "data": [{"smiles": "OCCNCc1ccc(OCc2ccccc2)c(OCc2ccccc2)c1", "note": "[Compound 3, 2-[[3,4-bis(phenylmethoxy)phenyl]methylamino]ethanol]", "values": [{"measurement": "growth of MM1.S myeloma cell line (result in words)", "setting": "[1]; FIG. 4A", "value": "directly inhibited"}, {"measurement": "IC50", "setting": "[1]; Homo sapiens, MM1.S", "value": 6.19, "unit": "µM"}, {"measurement": "toxicity to regular stromal cells", "setting": "[2]", "value": "low toxicity"}, {"measurement": "proliferation of stromal cells by MTT assay", "setting": "[2]; 10 μM, 48 hours", "value": "did not change proliferation"}, {"measurement": "CFU-Blast colony formation", "setting": "[3]", "value": "do not inhibit"}, {"measurement": "IC50", "setting": "[4]; Mus musculus, Osteoclast, 168 h, read-out: IC50 concentration for OCL formation, wild type cells", "value": 1, "unit": "ng/mL"}, {"measurement": "OCL formation in wild type mice cell cultures", "setting": "[4]; various concentrations", "value": "blocked OCL formation dose dependently"}, {"measurement": "cleavage of caspase 9, 7 and 3", "setting": "[5]", "value": "induced cleavage"}, {"measurement": "distinct peaks in metabolic studies (likely hydroxylation or glucuronidation)", "setting": "[6]", "value": 3}]}]}
